Results: PubChem BioAssay AID1963829 (Molecular Pharmacology Branch, DTP, NCI, 2024)

System: 935938-334-R-J1-PDC complex spheroid viability
Experiment: Anticancer human tumor 935938-334-R-J1-PDC patient-derived small intestine adenocarcinoma cell line growth inhibition [POLQ]
Conditions: second compound 0.0316 µM; first compound 1 µM; active compounds read low
In short: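 Patient-derived tumour cells were co-cultured with HUVEC and mesenchymal stem cells as multicellular spheroids at 37 °C. They were treated with POLQ inhibitors (novobiocin, ART-558, RP6685) alone or combined with other agents. Top concentrations were at or near clinical Cmax (otherwise 10 microM; SN-38 at 1 microM), decreasing in half-log steps.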
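Further: spheroids exposed to drugs for seven days before viability read; 100% = DMSO vehicle control wells.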

Row | SMILES | viability, T/C
1 | C=CCn1c(=O)c2cnc(Nc3ccc(N4CCN(C)CC4)cc3)nc2n1-c1cccc(C(C)(C)O)n1 + COC1C(OC(N)=O)C(O)C(Oc2ccc3c(O)c(NC(=O)c4ccc(O)c(CC=C(C)C)c4)c(=O)oc3c2C)OC1(C)C | 29.5%
2 | O=C(Nc1ccc(O)c(NS(=O)(=O)c2ccc(F)cc2)c1)c1ccc(-c2ccccc2)cc1 + Nc1ccc(C#CCN(C(=O)Cc2ncc(C(F)(F)F)cc2C(F)(F)F)c2ccc(F)cc2)nn1 | 89.2%
3 | C=CC(=O)N1CCN(c2nc(=O)n(-c3c(C)ccnc3C(C)C)c3nc(-c4c(O)cccc4F)c(F)cc23)C(C)C1 (stereo unspecified) + Nc1ccc(C#CCN(C(=O)Cc2ncc(C(F)(F)F)cc2C(F)(F)F)c2ccc(F)cc2)nn1 | 128%

Same assay, conditions: second compound 0.0316 µM; first compound 3.16 µM; active compounds read low

Row | SMILES | viability, T/C
4 | COc1ccc([C@@H](O)c2cc(-c3ncnc4cc(N5CCOCC5)ccc34)c(F)cc2Cl)nn1 + Nc1ccc(C#CCN(C(=O)Cc2ncc(C(F)(F)F)cc2C(F)(F)F)c2ccc(F)cc2)nn1 | 59.2%
5 | O=C(Nc1ccc(O)c(NS(=O)(=O)c2ccc(F)cc2)c1)c1ccc(-c2ccccc2)cc1 + Nc1ccc(C#CCN(C(=O)Cc2ncc(C(F)(F)F)cc2C(F)(F)F)c2ccc(F)cc2)nn1 | 81.7%
6 | C=CC(=O)N1CCN(c2nc(=O)n(-c3c(C)ccnc3C(C)C)c3nc(-c4c(O)cccc4F)c(F)cc23)C(C)C1 (stereo unspecified) + Nc1ccc(C#CCN(C(=O)Cc2ncc(C(F)(F)F)cc2C(F)(F)F)c2ccc(F)cc2)nn1 | 125%

Same assay, conditions: second compound 0.0316 µM; first compound 10 µM; active compounds read low

Row | SMILES | viability, T/C
7 | COc1ccc([C@@H](O)c2cc(-c3ncnc4cc(N5CCOCC5)ccc34)c(F)cc2Cl)nn1 + Nc1ccc(C#CCN(C(=O)Cc2ncc(C(F)(F)F)cc2C(F)(F)F)c2ccc(F)cc2)nn1 | 44.7%
8 | O=C(Nc1ccc(O)c(NS(=O)(=O)c2ccc(F)cc2)c1)c1ccc(-c2ccccc2)cc1 + Nc1ccc(C#CCN(C(=O)Cc2ncc(C(F)(F)F)cc2C(F)(F)F)c2ccc(F)cc2)nn1 | 64.6%
9 | C=CC(=O)N1CCN(c2nc(=O)n(-c3c(C)ccnc3C(C)C)c3nc(-c4c(O)cccc4F)c(F)cc23)C(C)C1 (stereo unspecified) + Nc1ccc(C#CCN(C(=O)Cc2ncc(C(F)(F)F)cc2C(F)(F)F)c2ccc(F)cc2)nn1 | 112%

Same assay, conditions: second compound 0.1 µM; first compound 0.000316 µM; active compounds read low

Row | SMILES | viability, T/C
10 | Cn1ncnc1[C@H]1c2n[nH]c(=O)c3cc(F)cc(c23)N[C@@H]1c1ccc(F)cc1 + COC1C(OC(N)=O)C(O)C(Oc2ccc3c(O)c(NC(=O)c4ccc(O)c(CC=C(C)C)c4)c(=O)oc3c2C)OC1(C)C | 96.5%

Same assay, conditions: second compound 0.1 µM; first compound 0.001 µM; active compounds read low

Row | SMILES | viability, T/C
11 | Cn1ncnc1[C@H]1c2n[nH]c(=O)c3cc(F)cc(c23)N[C@@H]1c1ccc(F)cc1 + COC1C(OC(N)=O)C(O)C(Oc2ccc3c(O)c(NC(=O)c4ccc(O)c(CC=C(C)C)c4)c(=O)oc3c2C)OC1(C)C | 113%

Same assay, conditions: second compound 0.1 µM; first compound 0.00316 µM; active compounds read low

Row | SMILES | viability, T/C
12 | Cn1ncnc1[C@H]1c2n[nH]c(=O)c3cc(F)cc(c23)N[C@@H]1c1ccc(F)cc1 + COC1C(OC(N)=O)C(O)C(Oc2ccc3c(O)c(NC(=O)c4ccc(O)c(CC=C(C)C)c4)c(=O)oc3c2C)OC1(C)C | 103%
13 | CCc1c2c(nc3ccc(O)cc13)-c1cc3c(c(=O)n1C2)COC(=O)[C@]3(O)CC + Nc1ccc(C#CCN(C(=O)Cc2ncc(C(F)(F)F)cc2C(F)(F)F)c2ccc(F)cc2)nn1 | 93.6%
14 | C=CCn1c(=O)c2cnc(Nc3ccc(N4CCN(C)CC4)cc3)nc2n1-c1cccc(C(C)(C)O)n1 + COC1C(OC(N)=O)C(O)C(Oc2ccc3c(O)c(NC(=O)c4ccc(O)c(CC=C(C)C)c4)c(=O)oc3c2C)OC1(C)C | 136%

Same assay, conditions: second compound 0.1 µM; first compound 0.01 µM; active compounds read low

Row | SMILES | viability, T/C
15 | Cn1ncnc1[C@H]1c2n[nH]c(=O)c3cc(F)cc(c23)N[C@@H]1c1ccc(F)cc1 + COC1C(OC(N)=O)C(O)C(Oc2ccc3c(O)c(NC(=O)c4ccc(O)c(CC=C(C)C)c4)c(=O)oc3c2C)OC1(C)C | 89.8%
16 | CCc1c2c(nc3ccc(O)cc13)-c1cc3c(c(=O)n1C2)COC(=O)[C@]3(O)CC + Nc1ccc(C#CCN(C(=O)Cc2ncc(C(F)(F)F)cc2C(F)(F)F)c2ccc(F)cc2)nn1 | 64.3%
17 | C=CCn1c(=O)c2cnc(Nc3ccc(N4CCN(C)CC4)cc3)nc2n1-c1cccc(C(C)(C)O)n1 + COC1C(OC(N)=O)C(O)C(Oc2ccc3c(O)c(NC(=O)c4ccc(O)c(CC=C(C)C)c4)c(=O)oc3c2C)OC1(C)C | 111%

Same assay, conditions: second compound 0.1 µM; first compound 0.0316 µM; active compounds read low

Row | SMILES | viability, T/C
18 | Cn1ncnc1[C@H]1c2n[nH]c(=O)c3cc(F)cc(c23)N[C@@H]1c1ccc(F)cc1 + COC1C(OC(N)=O)C(O)C(Oc2ccc3c(O)c(NC(=O)c4ccc(O)c(CC=C(C)C)c4)c(=O)oc3c2C)OC1(C)C | 88.5%
19 | CCc1c2c(nc3ccc(O)cc13)-c1cc3c(c(=O)n1C2)COC(=O)[C@]3(O)CC + Nc1ccc(C#CCN(C(=O)Cc2ncc(C(F)(F)F)cc2C(F)(F)F)c2ccc(F)cc2)nn1 | 33.8%
20 | COc1ccc([C@@H](O)c2cc(-c3ncnc4cc(N5CCOCC5)ccc34)c(F)cc2Cl)nn1 + Nc1ccc(C#CCN(C(=O)Cc2ncc(C(F)(F)F)cc2C(F)(F)F)c2ccc(F)cc2)nn1 | 120%
21 | C=CCn1c(=O)c2cnc(Nc3ccc(N4CCN(C)CC4)cc3)nc2n1-c1cccc(C(C)(C)O)n1 + COC1C(OC(N)=O)C(O)C(Oc2ccc3c(O)c(NC(=O)c4ccc(O)c(CC=C(C)C)c4)c(=O)oc3c2C)OC1(C)C | 88.8%
22 | O=C(Nc1ccc(O)c(NS(=O)(=O)c2ccc(F)cc2)c1)c1ccc(-c2ccccc2)cc1 + Nc1ccc(C#CCN(C(=O)Cc2ncc(C(F)(F)F)cc2C(F)(F)F)c2ccc(F)cc2)nn1 | 91.9%
23 | C=CC(=O)N1CCN(c2nc(=O)n(-c3c(C)ccnc3C(C)C)c3nc(-c4c(O)cccc4F)c(F)cc23)C(C)C1 (stereo unspecified) + Nc1ccc(C#CCN(C(=O)Cc2ncc(C(F)(F)F)cc2C(F)(F)F)c2ccc(F)cc2)nn1 | 90.7%

Same assay, conditions: second compound 0.1 µM; first compound 0.1 µM; active compounds read low

Row | SMILES | viability, T/C
24 | Cn1ncnc1[C@H]1c2n[nH]c(=O)c3cc(F)cc(c23)N[C@@H]1c1ccc(F)cc1 + COC1C(OC(N)=O)C(O)C(Oc2ccc3c(O)c(NC(=O)c4ccc(O)c(CC=C(C)C)c4)c(=O)oc3c2C)OC1(C)C | 83.5%
25 | CCc1c2c(nc3ccc(O)cc13)-c1cc3c(c(=O)n1C2)COC(=O)[C@]3(O)CC + Nc1ccc(C#CCN(C(=O)Cc2ncc(C(F)(F)F)cc2C(F)(F)F)c2ccc(F)cc2)nn1 | 29.6%
26 | COc1ccc([C@@H](O)c2cc(-c3ncnc4cc(N5CCOCC5)ccc34)c(F)cc2Cl)nn1 + Nc1ccc(C#CCN(C(=O)Cc2ncc(C(F)(F)F)cc2C(F)(F)F)c2ccc(F)cc2)nn1 | 98.5%
27 | C=CCn1c(=O)c2cnc(Nc3ccc(N4CCN(C)CC4)cc3)nc2n1-c1cccc(C(C)(C)O)n1 + COC1C(OC(N)=O)C(O)C(Oc2ccc3c(O)c(NC(=O)c4ccc(O)c(CC=C(C)C)c4)c(=O)oc3c2C)OC1(C)C | 134%
28 | O=C(Nc1ccc(O)c(NS(=O)(=O)c2ccc(F)cc2)c1)c1ccc(-c2ccccc2)cc1 + Nc1ccc(C#CCN(C(=O)Cc2ncc(C(F)(F)F)cc2C(F)(F)F)c2ccc(F)cc2)nn1 | 83.1%
29 | C=CC(=O)N1CCN(c2nc(=O)n(-c3c(C)ccnc3C(C)C)c3nc(-c4c(O)cccc4F)c(F)cc23)C(C)C1 (stereo unspecified) + Nc1ccc(C#CCN(C(=O)Cc2ncc(C(F)(F)F)cc2C(F)(F)F)c2ccc(F)cc2)nn1 | 99.5%

Same assay, conditions: second compound 0.1 µM; first compound 0.316 µM; active compounds read low

Row | SMILES | viability, T/C
30 | CCc1c2c(nc3ccc(O)cc13)-c1cc3c(c(=O)n1C2)COC(=O)[C@]3(O)CC + Nc1ccc(C#CCN(C(=O)Cc2ncc(C(F)(F)F)cc2C(F)(F)F)c2ccc(F)cc2)nn1 | 34.7%
31 | COc1ccc([C@@H](O)c2cc(-c3ncnc4cc(N5CCOCC5)ccc34)c(F)cc2Cl)nn1 + Nc1ccc(C#CCN(C(=O)Cc2ncc(C(F)(F)F)cc2C(F)(F)F)c2ccc(F)cc2)nn1 | 105%
